Experiments:
[1] = system: 40 kinases; experiment: Kinase screening, whole panel; assay type: biochemical; conditions: summary of Table 1
Experimental: (§1) Compound 1 was tested for its efficacy in inhibiting activities of 40 kinases and binding with 12 GPCRs both as an antagonist and an agonist.

[2] = system: Loucy cells; experiment: Proliferation assay in Loucy leukemia cells; assay type: cell-based; conditions: read-out: IC50, inhibition of proliferation
Experimental: (§2) Dose Dependent Inhibition of Proliferation The 100 compounds selected from the initial in silico screen were assayed for inhibition of proliferation in two leukemia cell lines, SEM and P12 by Cell Titer Glo. The cells for the proliferation assay were spun down and re-suspended. The cell suspension was then divided and the compound to be tested added in desired concentrations and subsequently plated. Following an incubation period, the Cell Titer Glo reagent (Promega CellTiter 96® Aqueous Non-Radioactive Cell Proliferation Assay) was added and allowed to incubate. The absorbance is subsequently measured at 490 nm using a plate reader. Each compound was analyzed for its effects on cell proliferation.
(§3) The lead compound, i.e. Compound 1, was analyzed for its effect on cell proliferation at various doses on three different leukemia cell lines: SEM, P12, and Loucy. In order to quantitate the percentage inhibition of cell proliferation, Cell Titer Glo analysis was completed as described in Example 2 above.
FIGS. 3a-3c show three graphs illustrating the dose dependent inhibition of proliferation of Compound 1 in SEM, P12, and Loucy cells as measured by MTS assay. […] Compound 1 was further analyzed for its effect on cell apoptosis and cell death using a flow based assay using Annexin V staining.

[3] = system: normal bone marrow hematopoietic and progenitor cells; experiment: Colony forming unit assay (CFU assay) for toxicity; assay type: cell-based; conditions: semi-solid media, different doses
Experimental: Compound 1 was tested for toxicity in a colony forming unit assay (CFU assay), which was performed by plating normal bone marrow hematopoietic and progenitor cells in semi-solid media supplemented with different doses of Compound 1, NSC23766, and DMSO.
Compound 2 was also tested for toxicity in a colony forming unit assay (CFU assay), which was performed by plating normal bone marrow hematopoietic and progenitor cells in semi-solid media supplemented with different doses of Compound 2, NSC23766, and DMSO.

[4] = system: SEM cells; experiment: Proliferation assay in SEM leukemia cells; assay type: cell-based; conditions: read-out: IC50, inhibition of proliferation
Experimental: as §2, §3
FIGS. 3a-3c show three graphs illustrating the dose dependent inhibition of proliferation of Compound 1 in SEM, P12, and Loucy cells as measured by MTS assay. […] Compound 1 was further analyzed for its effect on cell apoptosis and cell death using a flow based assay using Annexin V staining. […]

[5] = target: ROCK2 (Homo sapiens, UniProt O75116); experiment: Kinase screening; assay type: biochemical
Experimental: as §1

[6] = target: LIMK2 (Homo sapiens, UniProt P53671); experiment: Kinase screening; assay type: biochemical
Experimental: as §1

[7] = target: PIK3C2B (PI3K-C2 beta) (Homo sapiens, UniProt O00750); experiment: Kinase screening; assay type: biochemical
Experimental: as §1

[8] = target: JAK3 (Homo sapiens, UniProt P52333); experiment: Kinase screening; assay type: biochemical
Experimental: as §1

[9] = target: ROCK1 (Homo sapiens, UniProt Q13464); experiment: Kinase screening; assay type: biochemical
Experimental: as §1

[10] = target: PIK3CD/PIK3R1 (p110 delta/p85 alpha) (Homo sapiens, UniProt O00329); experiment: Kinase screening; assay type: biochemical
Experimental: as §1

[11] = target: EGFR (ErbB1) (Homo sapiens, UniProt P00533); experiment: Kinase screening; assay type: biochemical
Experimental: as §1

[12] = target: JAK2 (Homo sapiens, UniProt O60674); experiment: Kinase screening; assay type: biochemical
Experimental: as §1

[13] = target: PAK1 (Homo sapiens, UniProt Q13153); experiment: Kinase screening; assay type: biochemical
Experimental: as §1

[14] = target: SYK (Homo sapiens, UniProt P43405); experiment: Kinase screening; assay type: biochemical
Experimental: as §1

[15] = target: IGF1R (Homo sapiens, UniProt P08069); experiment: Kinase screening; assay type: biochemical
Experimental: as §1

[16] = target: PAK7 (KIAA1264) (Homo sapiens, UniProt Q9P286); experiment: Kinase screening; assay type: biochemical
Experimental: as §1

[17] = target: PAK4 (Homo sapiens, UniProt O96013); experiment: Kinase screening; assay type: biochemical
Experimental: as §1

[18] = target: FRAP1 (mTOR) (Homo sapiens, UniProt P42345); experiment: Kinase screening; assay type: biochemical
Experimental: as §1

[19] = target: JAK1 (Homo sapiens, UniProt P23458); experiment: Kinase screening; assay type: biochemical
Experimental: as §1

[20] = target: MAPK3 (ERK1) (Homo sapiens, UniProt P27361); experiment: Kinase screening; assay type: biochemical
Experimental: as §1

[21] = target: PDGFRA (PDGFR alpha) (Homo sapiens, UniProt P16234); experiment: Kinase screening; assay type: biochemical
Experimental: as §1

[22] = target: PAK6 (Homo sapiens, UniProt Q9NQU5); experiment: Kinase screening; assay type: biochemical
Experimental: as §1

[23] = target: CDK1/cyclin B (Homo sapiens, UniProt P06493); experiment: Kinase screening; assay type: biochemical
Experimental: as §1

[24] = target: EPHB1 (Homo sapiens, UniProt P54762); experiment: Kinase screening; assay type: biochemical
Experimental: as §1

[25] = target: PIK3C2A (PI3K-C2 alpha) (Homo sapiens, UniProt O00443); experiment: Kinase screening; assay type: biochemical
Experimental: as §1

[26] = target: SRC (Homo sapiens, UniProt P12931); experiment: Kinase screening; assay type: biochemical
Experimental: as §1

[27] = target: PAK2 (PAK65) (Homo sapiens, UniProt Q13177); experiment: Kinase screening; assay type: biochemical
Experimental: as §1

[28] = target: PAK3 (Homo sapiens, UniProt O75914); experiment: Kinase screening; assay type: biochemical
Experimental: as §1

[29] = target: MAPK8 (JNK1) (Homo sapiens, UniProt P45983); experiment: Kinase screening; assay type: biochemical
Experimental: as §1

[30] = target: MAP2K2 (MEK2) (Homo sapiens, UniProt P36507); experiment: Kinase screening; assay type: biochemical
Experimental: as §1

[31] = target: MAP3K2 (MEKK2) (Homo sapiens, UniProt Q9Y2U5); experiment: Kinase screening; assay type: biochemical
Experimental: as §1

Chain of JAK2 (O60674 whole entry, species assumed): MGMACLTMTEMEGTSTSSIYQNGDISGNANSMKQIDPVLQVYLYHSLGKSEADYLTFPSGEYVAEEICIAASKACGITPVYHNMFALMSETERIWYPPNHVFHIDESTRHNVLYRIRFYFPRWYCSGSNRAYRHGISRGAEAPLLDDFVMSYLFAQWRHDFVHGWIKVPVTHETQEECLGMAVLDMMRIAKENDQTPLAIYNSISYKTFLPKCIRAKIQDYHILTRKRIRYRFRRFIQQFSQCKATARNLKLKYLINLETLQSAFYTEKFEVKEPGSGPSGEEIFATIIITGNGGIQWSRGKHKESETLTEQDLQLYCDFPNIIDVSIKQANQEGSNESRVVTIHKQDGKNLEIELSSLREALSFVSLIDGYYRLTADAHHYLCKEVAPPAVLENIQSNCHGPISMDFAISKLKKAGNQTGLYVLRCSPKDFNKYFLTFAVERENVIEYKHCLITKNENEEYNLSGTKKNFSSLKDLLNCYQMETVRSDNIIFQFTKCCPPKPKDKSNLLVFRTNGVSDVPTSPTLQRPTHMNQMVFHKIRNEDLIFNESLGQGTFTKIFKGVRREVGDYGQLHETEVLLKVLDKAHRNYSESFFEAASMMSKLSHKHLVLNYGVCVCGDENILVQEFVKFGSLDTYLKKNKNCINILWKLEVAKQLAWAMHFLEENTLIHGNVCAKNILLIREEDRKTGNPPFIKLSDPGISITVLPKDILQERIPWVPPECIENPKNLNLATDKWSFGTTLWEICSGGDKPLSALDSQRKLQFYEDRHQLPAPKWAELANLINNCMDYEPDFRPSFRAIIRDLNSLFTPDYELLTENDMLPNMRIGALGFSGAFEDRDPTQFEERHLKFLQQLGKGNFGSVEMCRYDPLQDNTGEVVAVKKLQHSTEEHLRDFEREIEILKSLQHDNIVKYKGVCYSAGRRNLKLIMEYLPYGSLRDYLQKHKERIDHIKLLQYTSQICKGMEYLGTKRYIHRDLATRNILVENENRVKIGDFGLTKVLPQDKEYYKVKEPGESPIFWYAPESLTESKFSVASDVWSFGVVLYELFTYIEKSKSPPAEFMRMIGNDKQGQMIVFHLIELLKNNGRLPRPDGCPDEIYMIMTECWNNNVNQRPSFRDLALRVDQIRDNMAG
Chain of PDGFRA (PDGFR alpha) (P16234 24-1089, species assumed): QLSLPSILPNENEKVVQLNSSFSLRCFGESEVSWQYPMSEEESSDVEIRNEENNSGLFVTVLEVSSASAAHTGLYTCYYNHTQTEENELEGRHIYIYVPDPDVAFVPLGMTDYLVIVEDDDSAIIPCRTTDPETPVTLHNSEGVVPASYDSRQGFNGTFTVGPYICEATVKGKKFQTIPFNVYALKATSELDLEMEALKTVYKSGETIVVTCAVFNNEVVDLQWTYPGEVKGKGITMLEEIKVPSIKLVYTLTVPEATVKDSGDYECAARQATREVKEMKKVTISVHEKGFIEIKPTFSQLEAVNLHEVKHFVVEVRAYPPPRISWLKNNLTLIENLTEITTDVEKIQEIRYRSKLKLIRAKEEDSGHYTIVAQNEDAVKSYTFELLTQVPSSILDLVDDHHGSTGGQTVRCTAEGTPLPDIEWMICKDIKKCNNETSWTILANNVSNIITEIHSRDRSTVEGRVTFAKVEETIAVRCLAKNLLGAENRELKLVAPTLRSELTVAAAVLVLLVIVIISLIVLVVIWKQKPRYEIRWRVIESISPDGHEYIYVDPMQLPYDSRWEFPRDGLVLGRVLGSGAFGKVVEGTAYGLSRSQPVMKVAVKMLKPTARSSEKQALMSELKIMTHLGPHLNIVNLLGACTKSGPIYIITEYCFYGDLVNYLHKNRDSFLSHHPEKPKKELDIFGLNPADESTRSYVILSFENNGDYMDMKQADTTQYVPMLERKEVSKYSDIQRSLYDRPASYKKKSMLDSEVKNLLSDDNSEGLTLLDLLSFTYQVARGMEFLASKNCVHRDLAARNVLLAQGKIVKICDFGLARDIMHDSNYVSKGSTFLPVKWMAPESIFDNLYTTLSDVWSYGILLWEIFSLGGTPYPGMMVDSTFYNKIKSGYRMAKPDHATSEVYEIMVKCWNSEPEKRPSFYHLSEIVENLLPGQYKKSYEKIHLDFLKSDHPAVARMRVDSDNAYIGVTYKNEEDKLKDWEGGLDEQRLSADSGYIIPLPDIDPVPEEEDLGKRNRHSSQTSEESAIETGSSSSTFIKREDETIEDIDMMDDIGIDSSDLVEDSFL
Chain of PAK2 (PAK65) (Q13177 whole entry, species assumed): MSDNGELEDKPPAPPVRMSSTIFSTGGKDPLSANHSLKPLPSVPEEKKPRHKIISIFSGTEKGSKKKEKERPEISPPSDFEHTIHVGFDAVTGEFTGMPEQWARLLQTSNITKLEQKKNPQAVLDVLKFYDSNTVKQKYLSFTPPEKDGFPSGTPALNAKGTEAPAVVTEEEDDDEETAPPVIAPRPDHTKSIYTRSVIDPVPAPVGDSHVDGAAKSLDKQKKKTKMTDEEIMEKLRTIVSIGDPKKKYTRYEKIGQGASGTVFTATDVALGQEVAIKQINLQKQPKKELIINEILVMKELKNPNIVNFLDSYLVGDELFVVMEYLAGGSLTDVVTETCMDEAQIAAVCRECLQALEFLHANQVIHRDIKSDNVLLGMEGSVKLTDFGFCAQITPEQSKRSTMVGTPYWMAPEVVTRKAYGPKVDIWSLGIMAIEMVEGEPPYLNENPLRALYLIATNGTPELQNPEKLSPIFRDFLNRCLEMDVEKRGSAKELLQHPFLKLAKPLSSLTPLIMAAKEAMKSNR
Chain of PAK7 (KIAA1264) (Q9P286 whole entry, species assumed): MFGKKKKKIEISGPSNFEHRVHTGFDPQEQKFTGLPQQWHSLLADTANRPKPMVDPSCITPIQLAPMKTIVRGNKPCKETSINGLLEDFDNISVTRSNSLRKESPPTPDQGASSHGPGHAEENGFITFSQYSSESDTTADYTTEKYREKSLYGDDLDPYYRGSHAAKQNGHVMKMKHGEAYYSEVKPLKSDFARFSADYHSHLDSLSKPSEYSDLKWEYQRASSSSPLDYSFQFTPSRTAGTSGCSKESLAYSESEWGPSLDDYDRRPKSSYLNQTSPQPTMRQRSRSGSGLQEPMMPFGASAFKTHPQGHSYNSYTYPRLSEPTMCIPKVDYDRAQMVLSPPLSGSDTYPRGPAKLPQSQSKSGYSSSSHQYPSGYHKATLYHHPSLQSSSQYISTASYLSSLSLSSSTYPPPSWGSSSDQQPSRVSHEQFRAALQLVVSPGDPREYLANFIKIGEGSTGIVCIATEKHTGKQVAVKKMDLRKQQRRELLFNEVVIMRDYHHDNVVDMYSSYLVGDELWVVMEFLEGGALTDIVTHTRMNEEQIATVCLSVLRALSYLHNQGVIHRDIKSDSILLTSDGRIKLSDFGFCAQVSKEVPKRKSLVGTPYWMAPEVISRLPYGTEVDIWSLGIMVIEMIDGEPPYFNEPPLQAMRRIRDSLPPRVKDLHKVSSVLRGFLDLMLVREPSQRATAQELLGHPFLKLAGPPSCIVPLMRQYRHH
Chain of LIMK2 (P53671 whole entry, species assumed): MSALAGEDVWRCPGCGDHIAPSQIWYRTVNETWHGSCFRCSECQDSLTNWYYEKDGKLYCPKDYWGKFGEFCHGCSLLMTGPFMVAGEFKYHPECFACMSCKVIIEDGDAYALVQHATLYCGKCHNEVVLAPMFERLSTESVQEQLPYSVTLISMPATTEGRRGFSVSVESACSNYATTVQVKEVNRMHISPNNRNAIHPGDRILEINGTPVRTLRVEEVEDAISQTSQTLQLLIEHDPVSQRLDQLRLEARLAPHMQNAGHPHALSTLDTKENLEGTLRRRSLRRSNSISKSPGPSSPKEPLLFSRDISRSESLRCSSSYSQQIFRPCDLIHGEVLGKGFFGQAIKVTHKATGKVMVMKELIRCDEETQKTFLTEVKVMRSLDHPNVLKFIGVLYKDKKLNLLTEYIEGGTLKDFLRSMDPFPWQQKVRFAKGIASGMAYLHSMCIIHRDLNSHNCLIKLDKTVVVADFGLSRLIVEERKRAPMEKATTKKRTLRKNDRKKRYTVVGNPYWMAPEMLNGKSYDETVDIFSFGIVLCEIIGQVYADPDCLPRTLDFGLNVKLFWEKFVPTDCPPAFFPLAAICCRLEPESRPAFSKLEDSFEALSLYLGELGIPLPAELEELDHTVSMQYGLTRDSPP
Chain of MAP3K2 (MEKK2) (Q9Y2U5 whole entry, species assumed): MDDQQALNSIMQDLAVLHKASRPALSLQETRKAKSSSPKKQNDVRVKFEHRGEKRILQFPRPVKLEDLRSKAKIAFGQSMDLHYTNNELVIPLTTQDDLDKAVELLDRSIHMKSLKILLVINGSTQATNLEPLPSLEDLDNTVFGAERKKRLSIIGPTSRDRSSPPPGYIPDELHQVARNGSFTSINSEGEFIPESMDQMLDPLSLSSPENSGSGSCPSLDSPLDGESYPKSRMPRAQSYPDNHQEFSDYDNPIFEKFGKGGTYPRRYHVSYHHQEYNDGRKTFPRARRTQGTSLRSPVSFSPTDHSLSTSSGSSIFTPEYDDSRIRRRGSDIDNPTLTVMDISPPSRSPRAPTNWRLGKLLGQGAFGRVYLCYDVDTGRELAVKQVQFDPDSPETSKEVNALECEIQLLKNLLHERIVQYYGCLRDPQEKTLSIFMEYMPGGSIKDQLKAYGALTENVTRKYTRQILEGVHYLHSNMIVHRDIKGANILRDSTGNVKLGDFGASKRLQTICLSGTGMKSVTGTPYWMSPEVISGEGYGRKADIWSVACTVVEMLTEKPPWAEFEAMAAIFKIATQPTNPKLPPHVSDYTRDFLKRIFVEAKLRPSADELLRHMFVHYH
Chain of MAPK3 (ERK1) (P27361 whole entry, species assumed): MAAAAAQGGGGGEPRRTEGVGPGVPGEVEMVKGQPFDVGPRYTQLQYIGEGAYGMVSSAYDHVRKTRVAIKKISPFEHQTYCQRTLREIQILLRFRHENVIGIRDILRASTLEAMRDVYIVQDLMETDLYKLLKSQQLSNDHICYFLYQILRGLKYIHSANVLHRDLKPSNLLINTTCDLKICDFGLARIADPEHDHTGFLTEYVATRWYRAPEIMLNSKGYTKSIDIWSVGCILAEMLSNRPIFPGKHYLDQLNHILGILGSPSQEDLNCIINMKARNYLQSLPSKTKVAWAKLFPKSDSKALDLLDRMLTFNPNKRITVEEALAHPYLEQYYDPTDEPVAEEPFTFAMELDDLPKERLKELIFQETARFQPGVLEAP

How did the “inhibition of the 40 kinases tested” value [1] turn out when `CCc1ccc(CN(C)C(=O)CCc2nnc(CCc3c[nH]c4ccccc34)o2)nc1` (racemic) [Compound 1] was run?
The value was “no significant inhibition”.

And the IC50 [2]?
Its IC50 is 160 µM.

And the “toxicity toward normal bone marrow cells” value [3]?
The value was “did not exhibit toxicity”.

What about the IC50 [4] of the same compound?
The IC50 was 43.8 µM.

What about the inhibition percentage [5] of the same compound?
The inhibition percentage was −2.0 percentage.

What about the inhibition percentage [6] of the same compound?
Its inhibition percentage is 0.4 percentage.

And the inhibition percentage [7]?
The inhibition percentage was −10.9 percentage.

What about the inhibition percentage [8] of the same compound?
The inhibition percentage was −16.3 percentage.

What about the inhibition percentage [9] of the same compound?
The inhibition percentage was −4.6 percentage.

What about the inhibition percentage [10] of the same compound?
Its inhibition percentage is 9.0 percentage.

And the inhibition percentage [11]?
Its inhibition percentage is −10.4 percentage.

And the inhibition percentage [12]?
The inhibition percentage was −11.6 percentage.

And the inhibition percentage [13]?
The inhibition percentage was 22.7 percentage.

What about the inhibition percentage [14] of the same compound?
The inhibition percentage was 7.0 percentage.

And the inhibition percentage [15]?
Its inhibition percentage is −7.4 percentage.

What about the inhibition percentage [16] of the same compound?
Its inhibition percentage is −11.5 percentage.

What about the inhibition percentage [17] of the same compound?
The inhibition percentage was 6.4 percentage.

And the inhibition percentage [18]?
Its inhibition percentage is 0.9 percentage.

What about the inhibition percentage [19] of the same compound?
The inhibition percentage was −3.3 percentage.

And the inhibition percentage [20]?
The inhibition percentage was 6.7 percentage.

And the inhibition percentage [21]?
Its inhibition percentage is 15.1 percentage.

What about the inhibition percentage [22] of the same compound?
The inhibition percentage was −0.6 percentage.

And the inhibition percentage [23]?
Its inhibition percentage is −2.3 percentage.

And the inhibition percentage [24]?
The inhibition percentage was 7.1 percentage.

What about the inhibition percentage [25] of the same compound?
The inhibition percentage was −1.3 percentage.

What about the inhibition percentage [26] of the same compound?
Its inhibition percentage is 8.7 percentage.

What about the inhibition percentage [27] of the same compound?
The inhibition percentage was −8.5 percentage.

And the inhibition percentage [28]?
Its inhibition percentage is −10.2 percentage.

And the inhibition percentage [29]?
Its inhibition percentage is 0.4 percentage.

What about the inhibition percentage [30] of the same compound?
Its inhibition percentage is 13.3 percentage.

And the inhibition percentage [31]?
Its inhibition percentage is 5.9 percentage.

Source: US11427574B2, “Compounds for treating Rac-GTPase mediated disorder” (Children's Medical Center Corporation, priority 2015, dated 2022)
